These are literature values, as cited in patent US20260009079A1, “BIOMARKERS OF PREGNANCY LOSS” (The University of Warwick, priority 2022, published 2026).

The subject of this series is bone marrow-derived MSCs. Particulars: given over 3 menstrual cycles; previously reported (Tewary et al., 2020).

In the case of `N[C@@H](CC(=O)N1CCn2c(nnc2C(F)(F)F)C1)Cc1cc(F)c(F)cc1F` [sitagliptin], the “recruitment of bone marrow-derived MSCs” value is listed as “increases”.
